Source: paper PMC10870048, “2,4‐Dihydroxybenzoic Acid, a Novel SA Derivative, Controls Plant Immunity via UGT95B17‐Mediated Glucosylation: A Case Study in Camellia Sinensis” (Advanced Science, 2023)

Each compound was assayed on T1, UGT95B17 (assay: UDP-Glo glycosyltransferase assay). Settings: UDP-glucose co-substrate, pH 7.5, 25 °C, 40 min; read-out: apparent KM.
T1 construct: full-length ORF in pGEX-4T-1 (N-terminal GST tag of vector)
Assay type: biochemical, Camellia sinensis
`O=C(O)c1ccc(O)cc1O` [2,4-DHBA] gave a Km of 0.81 ± 0.26 µM.
`O=C(O)c1cccc(O)c1O` [2,3-DHBA] showed a Km of 3.31 ± 0.58 µM.
`O=C(O)c1cc(O)ccc1O` [2,5-DHBA] was tested, and the Km was 0.31 ± 0.11 µM.
